The test relates to Pyricularia oryzae. In words: Inhibition of spore germination of Magnaporthe oryzae. The settings on record: read-out: ED50 (the source's name). The class given is functional.

Each structure is given as a SMILES string. Values after ≈ are worked out from the molar mass of the structure shown.

In ChEMBL document CHEMBL3045121, “Synthesis of an Antifungal Naphthoquinone Isolated fromRhinacanthus nasutus(Acanthaceae)” (1995) one finds EC50 data, which are given here for two compounds.

Turning to `C/C=C(\C)CC/C=C(\C)C(=O)OCC(C)(C)CC1=C(O)C(=O)c2ccccc2C1=O` [RHINACANTHIN C], the EC50 stood at 0.2 µg/mL (≈ 0.487 µM).
For `CC1(C)COC2=C(C1)C(=O)C(=O)c1ccccc12` [RHINACANTHONE], the EC50 is 0.4 µg/mL (≈ 1.65 µM).
